# From patent US10538555B2, “Macrocyclic inhibitors of the PD-1/PD-L1 and CD80(B7-1)/PD-L1 protein/protein interactions” (BRISTOL-MYERS SQUIBB COMPANY, priority 2014, dated 2020)
# *1 amine or outer side, *2 acyl side, *3 side chain or, on linkers, in order; H or OH if unused. Where a SMILES comes first, the peptide text is derived from it. Bridges are numbered along the chain shown (N, C = ends). [ ]: non-standard residue; d: D form. ξ: configuration not given here. Phe(3,4,5-F3) = N[C@@H](Cc1cc(F)c(F)c(F)c1)C(=O)O; Phe(4-CH2NH2) = NCc1ccc(C[C@H](N)C(=O)O)cc1; NMePhe(4-F) = CN[C@@H](Cc1ccc(F)cc1)C(=O)O; Phe(4-F) = N[C@@H](Cc1ccc(F)cc1)C(=O)O; d(cisHyp) = O=C(O)[C@H]1C[C@@H](O)CN1; NMeY = CN[C@@H](Cc1ccc(O)cc1)C(=O)O; Hyp = O=C(O)[C@@H]1C[C@@H](O)CN1; NMeF = CN[C@@H](Cc1ccccc1)C(=O)O; X1 = O=C([C@H]1COCCN1[*:1])[*:2]; NMeNle = CCCC[C@H](NC)C(=O)O; hSer = N[C@@H](CCO)C(=O)O; NMeA = CN[C@@H](C)C(=O)O; Orn = NCCC[C@H](N)C(=O)O; Dab = NCC[C@H](N)C(=O)O; ξC = NC(CS)C(=O)O; Sar = CNCC(=O)O
# Target: T1, Human PD-L1/PD-1 (Homo sapiens, UniProt Q9NZQ7)
# T1 construct: TVMV protease cleavage site (C); made in house; host or cells: HEK293T cells
# T1 sequence (Q9NZQ7 with tags, fused parts or gaps): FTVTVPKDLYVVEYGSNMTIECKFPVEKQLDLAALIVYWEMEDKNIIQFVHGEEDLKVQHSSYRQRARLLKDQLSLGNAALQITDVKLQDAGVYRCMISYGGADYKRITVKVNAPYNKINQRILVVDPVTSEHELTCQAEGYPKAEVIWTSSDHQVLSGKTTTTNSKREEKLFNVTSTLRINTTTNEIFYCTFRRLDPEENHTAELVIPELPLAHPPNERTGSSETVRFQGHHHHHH
# Assay: HTRF Human PD-L1/PD-1 binding assay (PD-1-Ig/PD-L1-His)
# Details: PD-L1-His 10 nM, PD-1-Ig 20 nM; class symbol; read-out: HTRF Human PD-L1/PD-1 Binding Assay IC50 Range
# Procedure, shortened: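 HTRF read-out (665/620 nm ratio) after 30 min equilibration with Eu-cryptate anti-Ig mAb (1 nM) and APC anti-His mAb (20 nM). Peptides preincubated 15 min with PD-L1-His (10 nM), then PD-1-Ig (20 nM) added for 15 min.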
row,Structure (SMILES),IC50 [nM]
1,"CCCC[C@H]1C(=O)N2C[C@H](O)C[C@@H]2C(=O)N[C@@H](CC(=O)O)C(=O)N[C@@H](C(C)C)C(=O)N(C)[C@@H](Cc2ccccc2)C(=O)N[C@@H](CCC(=O)O)C(=O)N2C[C@H](O)C[C@@H]2C(=O)N[C@@H](Cc2c[nH]c3ccccc23)C(=O)N[C@@H](Cc2ccc(O)cc2)C(=O)N[C@@H](CC(=O)O)C(=O)N[C@H](C(=O)NCC(N)=O)CSCC(=O)N[C@@H](Cc2cc(F)c(F)c(F)c2)C(=O)N(C)[C@@H](Cc2ccccc2)C(=O)N1C [Example 9336] ({CH2CO}-[Phe(3,4,5-F3)][NMeF][NMeNle][d(cisHyp)]DV[NMeF]E[d(cisHyp)]WYDCG-NH2; thioether N-13)",10 to 99.9
2,CCCC[C@H]1C(=O)N(C)[C@@H](CCCC)C(=O)NCC(=O)N[C@H](C(=O)NCC(N)=O)CSCC(=O)N[C@@H](Cc2ccc(O)cc2)C(=O)N(C)[C@@H](C)C(=O)N[C@@H](CC(N)=O)C(=O)N2CCC[C@H]2C(=O)N[C@@H](Cc2c[nH]cn2)C(=O)N[C@@H](CCC(N)=O)C(=O)N2C[C@H](O)C[C@H]2C(=O)N[C@@H](Cc2c[nH]c3ccccc23)C(=O)NCC(=O)N[C@@H](Cc2c[nH]c3ccccc23)C(=O)N1C [Example 5198] ({CH2CO}-Y[NMeA]NPHQ[Hyp]WGW[NMeNle][NMeNle]GCG-NH2; thioether N-14),10 to 99.9
3,CCCC[C@H]1C(=O)N[C@@H](CC(N)=O)C(=O)N2CCC[C@H]2C(=O)N[C@@H](CO)C(=O)N[C@@H](CCO)C(=O)N2C[C@H](O)C[C@H]2C(=O)N[C@@H](Cc2c[nH]c3ccccc23)C(=O)N[C@@H](CO)C(=O)N[C@@H](Cc2c[nH]c3ccccc23)C(=O)N(C)[C@@H](C)C(=O)N(C)[C@@H](C)C(=O)N[C@@H](CCC(=O)O)C(=O)NC(C(=O)NCC(N)=O)CSCC(=O)N[C@@H](Cc2ccc(O)cc2)C(=O)N1C (some centres unmarked) [Example 10212] ({CH2CO}-Y[NMeNle]NPS[hSer][Hyp]WSW[NMeA][NMeA]E[ξC]G-NH2; thioether N-14),1000 to 10000
4,"CCCC[C@H]1C(=O)N2C[C@H](O)C[C@@H]2C(=O)N[C@@H](CC(=O)O)C(=O)N[C@@H](C(C)C)C(=O)N(C)[C@@H](Cc2ccccc2)C(=O)N[C@@H](CCC(=O)O)C(=O)N2C[C@H](O)C[C@@H]2C(=O)N[C@@H](Cc2c[nH]c3ccccc23)C(=O)N[C@@H](Cc2ccc(O)cc2)C(=O)N[C@@H](CCCN)C(=O)N[C@H](C(=O)NCC(N)=O)CSCC(=O)N[C@@H](Cc2cc(F)c(F)c(F)c2)C(=O)N(C)[C@@H](Cc2ccccc2)C(=O)N1C [Example 9332] ({CH2CO}-[Phe(3,4,5-F3)][NMeF][NMeNle][d(cisHyp)]DV[NMeF]E[d(cisHyp)]WY[Orn]CG-NH2; thioether N-13)",10 to 99.9
5,CCCC[C@H]1C(=O)N(C)CC(=O)N[C@@H](CC(N)=O)C(=O)N[C@@H](C(C)C)C(=O)N(C)[C@@H](Cc2ccccc2)C(=O)N[C@@H](CC(=O)O)C(=O)N(C)CC(=O)N[C@@H](Cc2c[nH]c3ccccc23)C(=O)N[C@@H](Cc2ccc(CN)cc2)C(=O)N[C@@H](CC(C)C)C(=O)N[C@H](C(=O)NCC(N)=O)CSCC(=O)N[C@@H](Cc2ccccc2)C(=O)N(C)[C@@H](Cc2ccccc2)C(=O)N1C [Example 3212] ({CH2CO}-F[NMeF][NMeNle][Sar]NV[NMeF]D[Sar]W[Phe(4-CH2NH2)]LCG-NH2; thioether N-13),10 to 99.9

# Now from value to compound:
row,IC50 [nM],Structure (SMILES)
1,1 to 9.9,"CCCC[C@H]1C(=O)N2C[C@H](O)C[C@@H]2C(=O)N[C@@H](CC(=O)O)C(=O)N[C@@H](C(C)C)C(=O)N(C)[C@@H](Cc2ccccc2)C(=O)N[C@@H](CCC(=O)O)C(=O)N2CCC[C@@H]2C(=O)N[C@@H](Cc2c[nH]c3ccccc23)C(=O)N[C@@H](Cc2ccc(O)cc2)C(=O)N[C@@H](CCOC)C(=O)N[C@H](C(=O)NCC(N)=O)CSCC(=O)N[C@@H](Cc2cc(F)c(F)c(F)c2)C(=O)N(C)[C@@H](Cc2ccccc2)C(=O)N1C [Example 10193] ({CH2CO}-[Phe(3,4,5-F3)][NMeF][NMeNle][d(cisHyp)]DV[NMeF]E[dP]WY[hSer](Me)CG-NH2; thioether N-13)"
2,1 to 9.9,CCCC[C@H]1C(=O)N2CCC[C@@H]2C(=O)N[C@@H](CC(=O)O)C(=O)N[C@@H](C(C)C)C(=O)N(C)[C@@H](Cc2ccc(F)cc2)C(=O)N[C@@H](CCC(=O)O)C(=O)N2CCC[C@@H]2C(=O)N[C@@H](Cc2c[nH]c3ccccc23)C(=O)N[C@@H](Cc2ccc(O)cc2)C(=O)N[C@@H](CC(C)C)C(=O)N[C@H](C(=O)NCC(N)=O)CSCC(=O)N[C@@H](Cc2ccc(F)cc2)C(=O)N(C)[C@@H](Cc2ccccc2)C(=O)N1C [Example 10111] ({CH2CO}-[Phe(4-F)][NMeF][NMeNle][dP]DV[NMePhe(4-F)]E[dP]WYLCG-NH2; thioether N-13)
3,1 to 9.9,CCCC[C@H]1C(=O)N(C)[C@@H](CCCC)C(=O)N[C@@H](CCCNC(=N)N)C(=O)NC(C(=O)NCC(N)=O)CSCC(=O)N[C@@H](Cc2ccc(O)cc2)C(=O)N(C)[C@@H](C)C(=O)N[C@@H](CC(N)=O)C(=O)N2CCC[C@H]2C(=O)N[C@@H](CCO)C(=O)N[C@@H](CC(C)C)C(=O)N2C[C@H](O)C[C@H]2C(=O)N[C@@H](Cc2c[nH]c3ccccc23)C(=O)N[C@@H](CO)C(=O)N[C@@H](Cc2c[nH]c3ccccc23)C(=O)N1C (some centres unmarked) [Example 9127] ({CH2CO}-Y[NMeA]NP[hSer]L[Hyp]WSW[NMeNle][NMeNle]R[ξC]G-NH2; thioether N-14)
4,1 to 9.9,"CCCC[C@H]1C(=O)N2CCC[C@@H]2C(=O)N[C@@H](CC(=O)O)C(=O)N[C@@H](C(C)C)C(=O)N(C)[C@@H](Cc2ccccc2)C(=O)N[C@@H](CCN)C(=O)N2CCOC[C@@H]2C(=O)N[C@@H](Cc2c[nH]c3ccccc23)C(=O)N[C@@H](Cc2ccc(O)cc2)C(=O)N[C@@H](CCN)C(=O)N[C@H](C(=O)NCC(N)=O)CSCC(=O)N[C@@H](Cc2cc(F)c(F)c(F)c2)C(=O)N(C)[C@@H](Cc2ccc(O)cc2)C(=O)N1C [Example 10623] ({CH2CO}-[Phe(3,4,5-F3)][NMeY][NMeNle][dP]DV[NMeF][Dab][X1]WY[Dab]CG-NH2; thioether N-13)"
5,1 to 9.9,CCCC[C@H]1C(=O)N(C)[C@@H](CCCC)C(=O)N[C@@H](CC(C)C)C(=O)N[C@H](C(=O)NCC(N)=O)CSCC(=O)N[C@@H](Cc2ccc(O)cc2)C(=O)N(C)[C@@H](C)C(=O)N[C@@H](CCN)C(=O)N2CCC[C@H]2C(=O)N[C@@H](Cc2c[nH]cn2)C(=O)N[C@@H](CCCCN)C(=O)N2C[C@H](O)C[C@H]2C(=O)N[C@@H](Cc2c[nH]c3ccccc23)C(=O)N[C@@H](CCCCN)C(=O)N[C@@H](Cc2c[nH]c3ccccc23)C(=O)N1C [Example 5201] ({CH2CO}-Y[NMeA][Dab]PHK[Hyp]WKW[NMeNle][NMeNle]LCG-NH2; thioether N-14)
6,1 to 9.9,"CCCC[C@H]1C(=O)N2CCC[C@@H]2C(=O)N[C@@H](CC(=O)O)C(=O)N[C@@H](C(C)C)C(=O)N(C)[C@@H](Cc2ccccc2)C(=O)N[C@@H](CC(=O)O)C(=O)N2C[C@H](O)C[C@@H]2C(=O)N[C@@H](Cc2c[nH]c3ccccc23)C(=O)N[C@@H](Cc2ccc(O)cc2)C(=O)N[C@@H](CCCCN)C(=O)N[C@H](C(=O)NCC(N)=O)CSCC(=O)N[C@@H](Cc2cc(F)c(F)c(F)c2)C(=O)N(C)[C@@H](Cc2ccccc2)C(=O)N1C [Example 10174] ({CH2CO}-[Phe(3,4,5-F3)][NMeF][NMeNle][dP]DV[NMeF]D[d(cisHyp)]WYKCG-NH2; thioether N-13)"
